From PubChem BioAssay (NCI)
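Test compounds were applied to cells in 96-well plates for 48 hours at 5 doses. TGI: concentration producing complete growth inhibition.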

Tests used:
Test in all cases: growth of human tumour cells (NCI), 48 h
OVCAR-4 ovarian = tested on: OVCAR-4 ovarian
XF 498 CNS = tested on: XF 498 CNS
KM20L2 colon = tested on: KM20L2 colon
LOX IMVI melanoma = tested on: LOX IMVI melanoma
SF-268 CNS = tested on: SF-268 CNS
UACC-257 melanoma = tested on: UACC-257 melanoma
ACHN renal = tested on: ACHN renal
SF-539 CNS = tested on: SF-539 CNS
HCC-2998 colon = tested on: HCC-2998 colon
OVCAR-3 ovarian = tested on: OVCAR-3 ovarian
A498 renal = tested on: A498 renal
DLD-1 colon = tested on: DLD-1 colon
SW-620 colon = tested on: SW-620 colon
HL-60(TB) leukemia = tested on: HL-60(TB) leukemia
NCI-H226 lung = tested on: NCI-H226 lung
RPMI-8226 leukemia = tested on: RPMI-8226 leukemia
SK-MEL-28 melanoma = tested on: SK-MEL-28 melanoma
COLO 205 colon = tested on: COLO 205 colon
NCI-H460 lung = tested on: NCI-H460 lung
HOP-92 NSCLC = tested on: HOP-92 NSCLC
NCI-H23 lung = tested on: NCI-H23 lung
HT29 colon = tested on: HT29 colon
SNB-78 CNS = tested on: SNB-78 CNS
UACC-62 melanoma = tested on: UACC-62 melanoma
CCRF-CEM leukemia = tested on: CCRF-CEM leukemia
OVCAR-8 ovarian = tested on: OVCAR-8 ovarian
M19-MEL melanoma = tested on: M19-MEL melanoma
MOLT-4 leukemia = tested on: MOLT-4 leukemia
SN12C renal = tested on: SN12C renal
DMS 114 small cell lung = tested on: DMS 114 small cell lung
TK-10 renal = tested on: TK-10 renal
DMS 273 small cell lung = tested on: DMS 273 small cell lung
A549 NSCLC = tested on: A549 NSCLC
HOP-18 NSCLC = tested on: HOP-18 NSCLC
UO-31 renal = tested on: UO-31 renal
786-0 renal = tested on: 786-0 renal
HCT-15 colon = tested on: HCT-15 colon
LXFL 529 NSCLC = tested on: LXFL 529 NSCLC
NCI-H522 lung = tested on: NCI-H522 lung
SNB-19 CNS = tested on: SNB-19 CNS
OVCAR-5 ovarian = tested on: OVCAR-5 ovarian
CAKI-1 renal = tested on: CAKI-1 renal
IGROV1 ovarian = tested on: IGROV1 ovarian
SK-OV-3 ovarian = tested on: SK-OV-3 ovarian
MALME-3M melanoma = tested on: MALME-3M melanoma
U251 CNS = tested on: U251 CNS
RXF 393 renal = tested on: RXF 393 renal
KM12 colon = tested on: KM12 colon
SR leukemia = tested on: SR leukemia
HOP-62 NSCLC = tested on: HOP-62 NSCLC
M14 melanoma = tested on: M14 melanoma
EKVX NSCLC = tested on: EKVX NSCLC
HCT-116 colon = tested on: HCT-116 colon
SK-MEL-2 melanoma = tested on: SK-MEL-2 melanoma
SK-MEL-5 melanoma = tested on: SK-MEL-5 melanoma
SNB-75 CNS = tested on: SNB-75 CNS
RXF-631 renal = tested on: RXF-631 renal
SF-295 CNS = tested on: SF-295 CNS
K-562 leukemia = tested on: K-562 leukemia

Measured: TGI

COC(=O)C(CCCCCCCC(C(=O)OC)c1nc2n(c1O)C(=N)N=N2)c1nc2n(c1O)C(=N)N=N2 (stereo unspecified)
> 85.6 µM: SNB-75 CNS
> 100 µM: OVCAR-4 ovarian | XF 498 CNS | KM20L2 colon | LOX IMVI melanoma | SF-268 CNS | UACC-257 melanoma | ACHN renal | SF-539 CNS | HCC-2998 colon | OVCAR-3 ovarian | A498 renal | DLD-1 colon | SW-620 colon | HL-60(TB) leukemia | NCI-H226 lung | RPMI-8226 leukemia | SK-MEL-28 melanoma | COLO 205 colon | NCI-H460 lung | HOP-92 NSCLC | NCI-H23 lung | HT29 colon | SNB-78 CNS | UACC-62 melanoma | CCRF-CEM leukemia | OVCAR-8 ovarian | MOLT-4 leukemia | SN12C renal | DMS 114 small cell lung | TK-10 renal | DMS 273 small cell lung | A549 NSCLC | HOP-18 NSCLC | UO-31 renal | 786-0 renal | HCT-15 colon | LXFL 529 NSCLC | NCI-H522 lung | SNB-19 CNS | OVCAR-5 ovarian | CAKI-1 renal | IGROV1 ovarian | SK-OV-3 ovarian | MALME-3M melanoma | U251 CNS | RXF 393 renal | KM12 colon | SR leukemia | HOP-62 NSCLC | M14 melanoma | EKVX NSCLC | HCT-116 colon | SK-MEL-2 melanoma | SK-MEL-5 melanoma | RXF-631 renal | SF-295 CNS
> 68.3 µM: M19-MEL melanoma

OCn1nc2c(C3OCCO3)cc3ccccc3n2c1=S
> 100 µM: OVCAR-4 ovarian | XF 498 CNS | KM20L2 colon | LOX IMVI melanoma | SF-268 CNS | UACC-257 melanoma | ACHN renal | SF-539 CNS | K-562 leukemia | OVCAR-3 ovarian | A498 renal | DLD-1 colon | SW-620 colon | HL-60(TB) leukemia | NCI-H226 lung | RPMI-8226 leukemia | SK-MEL-28 melanoma | COLO 205 colon | NCI-H460 lung | HOP-92 NSCLC | NCI-H23 lung | HT29 colon | SNB-78 CNS | UACC-62 melanoma | CCRF-CEM leukemia | OVCAR-8 ovarian | M19-MEL melanoma | MOLT-4 leukemia | SN12C renal | DMS 114 small cell lung | TK-10 renal | DMS 273 small cell lung | A549 NSCLC | HOP-18 NSCLC | UO-31 renal | 786-0 renal | HCT-15 colon | LXFL 529 NSCLC | NCI-H522 lung | SNB-19 CNS | OVCAR-5 ovarian | CAKI-1 renal | IGROV1 ovarian | SK-OV-3 ovarian | MALME-3M melanoma | U251 CNS | RXF 393 renal | KM12 colon | SR leukemia | HOP-62 NSCLC | M14 melanoma | EKVX NSCLC | HCT-116 colon | SK-MEL-2 melanoma | SK-MEL-5 melanoma | SNB-75 CNS | RXF-631 renal | SF-295 CNS
